Test results published in patent publication US20110021530A1, “PYRIDAZINE DERIVATIVES AND THEIR USE AS THERAPEUTIC AGENTS IN THE TREATMENT OF SKIN DISORDERS” (XENON PHARMACEUTICALS INC., priority 2008, published 2011).

Experiments:
[1] = target: T1, stearoyl-CoA desaturase (SCD) (Mus musculus, UniProt P13516); assay: HTS microsomal assay of stearoyl-CoA desaturase inhibition using mouse liver microsomes; type: biochemical; conditions: % SCD enzyme activity remaining at 10 μM test compound
T1 construct: Reactions are started by adding 2 mg of microsomal protein; from tissue; host or cells: liver microsomes of male ICR mice on a high-carbohydrate, low fat diet
T1 sequence (P13516 1-355): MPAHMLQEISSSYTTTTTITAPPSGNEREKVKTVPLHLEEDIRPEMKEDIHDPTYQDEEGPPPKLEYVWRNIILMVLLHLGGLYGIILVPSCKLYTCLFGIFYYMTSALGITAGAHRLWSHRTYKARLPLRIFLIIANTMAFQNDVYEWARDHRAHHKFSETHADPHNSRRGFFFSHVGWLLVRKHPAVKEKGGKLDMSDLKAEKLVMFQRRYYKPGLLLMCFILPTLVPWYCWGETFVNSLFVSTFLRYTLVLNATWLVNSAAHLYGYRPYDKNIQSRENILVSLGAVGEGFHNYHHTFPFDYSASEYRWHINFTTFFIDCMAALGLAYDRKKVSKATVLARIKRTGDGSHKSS
Experimental: The absence of mitochondrial contamination is enzymatically assessed.
The compounds are analyzed with an HTS microsomal assay.

SCD = target: T2, SCD (Mus musculus, UniProt P13516); assay: Mouse SCD IC50 determination for compounds active in the HTS assay; type: biochemical
T2 sequence (P13516 1-355): T1 sequence (P13516 1-355)
Experimental: The compounds are analyzed with an HTS microsomal assay. The activities are defined in terms of % SCD enzyme activity remaining at the selected concentration (e.g., 10 μM) of the test compounds.

HEPG2 = HEPG2 IC50; type: cell-based; conditions: Homo sapiens

| Mouse microsome SCD activity % remaining @ 10 μM [1] [%] | IC50 (SCD) [µM] | IC50 (HEPG2) [µM] | melting point [°C] | Compound |
| --- | --- | --- | --- | --- |
| 12 | 0.09 | 0.04 | 106 to 108 | O=C(NCCC1CC1)c1ccc(N2CCN(Cc3ccccc3C(F)(F)F)CC2)nn1 [6-[4-(2-TRIFLUOROMETHYLBENZYL)PIPERAZIN-1-YL]PYRIDAZINE-3-CARBOXYLIC ACID (2-CYCLOPROPYLETHYL)AMIDE] |
| – | – | – | 186 to 189 | CC(C)(C)C(O)CNC(=O)c1ccc(N2CCN(C(=O)c3cc(F)ccc3C(F)(F)F)CC2)nn1 (centres unmarked) [Example 15.30, 6-[4-(5-FLUORO-2-TRIFLUOROMETHYLBENZOYL)PIPERAZIN-1-YL]PYRIDAZINE-3-CARBOXYLIC ACID (2-HYDROXY-3,3-DIMETHYLBUTYL)AMIDE] |
| – | – | – | 151 to 154 | O=C(NCCc1ccccn1)c1ccc(N2CCN(C(=O)c3ccccc3C(F)(F)F)CC2)nn1 [Example 28.2, 6-[4-(2-TRIFLUOROMETHYLBENZOYL)PIPERAZIN-1-YL]PYRIDAZINE-3-CARBOXYLIC ACID (2-PYRIDIN-2-YLETHYL)AMIDE] |
| – | – | – | 117 to 120 | O=C(NCCC1CC1)c1ccc(N2CCN(C(=S)c3ccccc3C(F)(F)F)CC2)nn1 [Example 31, 6-[4-(2-TRIFLUOROMETHYLTHIOBENZOYL)PIPERAZIN-1-YL]-PYRIDAZINE-3-CARBOXYLIC ACID (2-CYCLOPROPYLETHYL)AMIDE] |
| – | – | – | 148 to 151 | CC(C)CCNC(=O)c1ccc(N2CCN(C(=O)c3cc(Cl)ccc3C(F)(F)F)CC2)nn1 [Example 3.7, 6-[4-(5-CHLORO-2-TRIFLUOROMETHYLBENZOYL)PIPERAZIN-1-YL]PYRIDAZINE-3-CARBOXYLIC ACID (3-METHYLBUTYL)AMIDE] |
| – | – | – | 43 to 45 | CC(C)CCCNC(=O)c1ccc(N2CCN(C(=O)c3ccccc3C(F)(F)F)CC2)nn1 [Example 15.33, 6-[4-(2-TRIFLUOROMETHYLBENZOYL)PIPERAZIN-1-YL]PYRIDAZINE-3-CARBOXYLIC ACID (4-METHYLPENTYL)AMIDE] |
| 5 | 0.02 | 0.02 | 179 to 181 | O=C(NCCc1ccc(F)cc1F)c1ccc(N2CCN(C(=O)c3ccccc3C(F)(F)F)CC2)nn1 [6-[4-(2-TRIFLUOROMETHYLBENZOYL)PIPERAZIN-1-YL]PYRIDAZINE-3-CARBOXYLIC ACID [2-(2,4-DIFLUOROPHENYL)ETHYL]AMIDE] |
| – | – | – | 117 to 119 | O=C(NCC(O)c1cccc(F)c1)c1ccc(N2CCN(C(=O)c3ccccc3C(F)(F)F)CC2)nn1 (centres unmarked) [Example 27.4, 6-[4-(2-TRIFLUOROMETHYLBENZOYL)PIPERAZIN-1-YL]PYRIDAZINE-3-CARBOXYLIC ACID [2-(3-FLUOROPHENYL)-2-HYDROXYETHYL]AMIDE] |
| – | – | – | > 300 | O=C(NCCC1CC1)Nc1ccc(N2CCN(C(=O)c3ccccc3C(F)(F)F)CC2)nn1 |
| – | – | – | 162 to 164 | O=C(NCCc1ccc2c(c1)OCO2)c1ccc(N2CCN(C(=O)c3ccccc3C(F)(F)F)CC2)nn1 [Example 30.1, 6-[4-(2-TRIFLUOROMETHYLBENZOYL)PIPERAZIN-1-YL]PYRIDAZINE-3-CARBOXYLIC ACID (2-BENZO[1,3]DIOXOL-5-YL-ETHYL)AMIDE] |
| – | – | – | 179 to 181 | O=C(NCc1ccccn1)c1ccc(N2CCN(C(=O)c3ccccc3C(F)(F)F)CC2)nn1 [Example 30, 6-[4-(2-TRIFLUOROMETHYLBENZOYL)PIPERAZIN-1-YL]PYRIDAZINE-3-CARBOXYLIC ACID (PYRIDIN-2-YL-METHYL)AMIDE] |
